Data as given in ChEMBL document CHEMBL1157039, “Synthesis and characterization of novel fatty acid analogs of cholesterol: in vitro antimicrobial activity” (2010).
In brackets after ≈: the same amount, converted by molar mass.

Legend:
Pseudomonas aeruginosa [1] = experiment: Antibacterial activity against Pseudomonas aeruginosa ATCC 27853 after 24 hrs by microdilution method; type: functional; details: ATCC 27853, 24 h
Streptococcus mutans [2] = experiment: Antibacterial activity against Streptococcus mutans UA159 MTCC 497 after 24 hrs by disk diffusion method; type: functional
Salmonella enterica [3] = experiment: Antibacterial activity against recultured Salmonella Typhimurium after 24 hrs by disk diffusion method; type: functional, Salmonella enterica subsp. enterica serovar Typhimurium
Pseudomonas aeruginosa [4] = experiment: Antibacterial activity against Pseudomonas aeruginosa ATCC 27853 after 24 hrs by disk diffusion method; type: functional
Cryptococcus neoformans [5] = experiment: Antifungal activity Cryptococcus neoformans after 48 to 72 hrs by disk diffusion method; type: functional
Escherichia coli [6] = experiment: Antibacterial activity against Escherichia coli ATCC 25922 after 24 hrs by disk diffusion method; type: functional
Candida albicans [7] = experiment: Antifungal activity against Candida albicans ATCC 24433 after 48 to 72 hrs by disk diffusion method; type: functional
Escherichia coli [8] = experiment: Antibacterial activity against Escherichia coli ATCC 25922 after 24 hrs by microdilution method; type: functional; details: ATCC 25922, 24 h
Salmonella enterica [9] = experiment: Antibacterial activity against recultured Salmonella Typhimurium after 24 hrs by microdilution method; type: functional, Salmonella enterica subsp. enterica serovar Typhimurium
Pichia kudriavzevii [10] = experiment: Antifungal activity against Candida krusei ATCC 6528 after 48 to 72 hrs by disk diffusion method; type: functional
Streptococcus mutans [11] = experiment: Antibacterial activity against Streptococcus mutans UA159 MTCC 497 after 24 hrs by microdilution method; type: functional; details: UA159 MTCC 497, 24 h
Cryptococcus neoformans [12] = experiment: Antifungal activity Cryptococcus neoformans after 48 to 72 hrs by microdilution method; type: functional
Staphylococcus aureus [13] = experiment: Antibacterial activity against Staphylococcus aureus ATCC 25923 after 24 hrs by microdilution method; type: functional; details: ATCC 25923, 24 h
Pichia kudriavzevii [14] = experiment: Antifungal activity against Candida krusei ATCC 6528 after 48 to 72 hrs by microdilution method; type: functional
Staphylococcus aureus [15] = experiment: Antibacterial activity against Staphylococcus aureus ATCC 25923 after 24 hrs by disk diffusion method; type: functional
Streptococcus pyogenes [16] = experiment: Antibacterial activity against recultured Streptococcus pyogenes after 24 hrs by disk diffusion method; type: functional
Candida parapsilosis [17] = experiment: Antifungal activity against Candida parapsilosis ATCC 22019 after 48 to 72 hrs by microdilution method; type: functional; details: Lodderomyces parapsilosis
Candida parapsilosis [18] = experiment: Antifungal activity against Candida parapsilosis ATCC 22019 after 48 to 72 hrs by disk diffusion method; type: functional
Candida albicans [19] = experiment: Antifungal activity against Candida albicans ATCC 24433 after 48 to 72 hrs by microdilution method; type: functional
Streptococcus pyogenes [20] = experiment: Antibacterial activity against recultured Streptococcus pyogenes after 24 hrs by microdilution method; type: functional
Pichia kudriavzevii [21] = experiment: Antifungal activity against Candida krusei ATCC 6528 at 30 ug/mL after 48 to 72 hrs by disk diffusion method; type: functional; details: read-out: DIZ
Candida albicans [22] = experiment: Antifungal activity against Candida albicans ATCC 24433 at 30 ug/mL after 48 to 72 hrs by disk diffusion method; type: functional; details: read-out: DIZ
Cryptococcus neoformans [23] = experiment: Antifungal activity Cryptococcus neoformans at 30 ug/mL after 48 to 72 hrs by disk diffusion method; type: functional; details: read-out: DIZ
Candida parapsilosis [24] = experiment: Antifungal activity against Candida parapsilosis ATCC 22019 at 30 ug/mL after 48 to 72 hrs by disk diffusion method; type: functional; details: Lodderomyces parapsilosis, read-out: DIZ

Compound	MIC (Pseudomonas aeruginosa [1]) [µg/mL]	diameter of the inhibition zone (DIZ) (Streptococcus mutans [2]) [mm]	diameter of the inhibition zone (DIZ) (Salmonella enterica [3]) [mm]	diameter of the inhibition zone (DIZ) (Pseudomonas aeruginosa [4]) [mm]	diameter of the inhibition zone (DIZ) (Cryptococcus neoformans [5]) [mm]	diameter of the inhibition zone (DIZ) (Escherichia coli [6]) [mm]	diameter of the inhibition zone (DIZ) (Candida albicans [7]) [mm]	MIC (Escherichia coli [8]) [µg/mL]	MIC (Salmonella enterica [9]) [µg/mL]	diameter of the inhibition zone (DIZ) (Pichia kudriavzevii [10]) [mm]	MIC (Streptococcus mutans [11]) [µg/mL]	MIC (Cryptococcus neoformans [12]) [µg/mL]	MIC (Staphylococcus aureus [13]) [µg/mL]	MIC (Pichia kudriavzevii [14]) [µg/mL]	diameter of the inhibition zone (DIZ) (Staphylococcus aureus [15]) [mm]	diameter of the inhibition zone (DIZ) (Streptococcus pyogenes [16]) [mm]	MIC (Candida parapsilosis [17]) [µg/mL]	diameter of the inhibition zone (DIZ) (Candida parapsilosis [18]) [mm]	MIC (Candida albicans [19]) [µg/mL]	MIC (Streptococcus pyogenes [20]) [µg/mL]	further results
C=CCCCCCCCCC(=O)O[C@H]1CC[C@@]2(C)C(=CC[C@H]3[C@@H]4CC[C@H]([C@H](C)CCCC(C)C)[C@@]4(C)CC[C@@H]32)C1	32 (≈ 57.9 µM)	20.5	16.4	16.2	12.1	16.5	18.3	128 (≈ 231 µM)	128 (≈ 231 µM)	16.1	32 (≈ 57.9 µM)	128 (≈ 231 µM)	64 (≈ 116 µM)	256 (≈ 463 µM)	19.8	19.2	32 (≈ 57.9 µM)	15.1	2 (≈ 3.62 µM)	32 (≈ 57.9 µM)	–
CC(C)CCC[C@@H](C)[C@H]1CC[C@H]2[C@@H]3CC=C4C[C@@H](OC(=O)CCCCCCCCC(Br)CBr)CC[C@]4(C)[C@H]3CC[C@]12C (stereo partly drawn)	128 (≈ 180 µM)	20.3	16.1	15.1	15.9	16.4	19.5	128 (≈ 180 µM)	128 (≈ 180 µM)	17.5	32 (≈ 44.9 µM)	32 (≈ 44.9 µM)	64 (≈ 89.8 µM)	128 (≈ 180 µM)	19.5	18.8	8 (≈ 11.2 µM)	16.8	1 (≈ 1.4 µM)	32 (≈ 44.9 µM)	–
C=CCCCCCCCCC(=O)O[C@H]1CC[C@]2(C)[C@H]3CC[C@]4(C)[C@@H]([C@H](C)CCCC(C)C)CC[C@H]4[C@@H]3C[C@@H](Br)[C@@]2(Br)C1	512 (≈ 718 µM)	21.5	16.2	17.1	12.7	19.8	15.5	128 (≈ 180 µM)	128 (≈ 180 µM)	13.4	32 (≈ 44.9 µM)	128 (≈ 180 µM)	64 (≈ 89.8 µM)	256 (≈ 359 µM)	20.1	20.2	256 (≈ 359 µM)	12.8	16 (≈ 22.4 µM)	64 (≈ 89.8 µM)	–
CCCCCCCC/C=C\CCCCCCCC(=O)O[C@H]1CC[C@@]2(C)C(=CC[C@H]3[C@@H]4CC[C@H]([C@H](C)CCCC(C)C)[C@@]4(C)CC[C@@H]32)C1 [CHOLESTERYL OLEATE]	128 (≈ 197 µM)	18.9	15.1	14.3	15.1	16.1	18.7	128 (≈ 197 µM)	128 (≈ 197 µM)	16.8	64 (≈ 98.3 µM)	32 (≈ 49.1 µM)	64 (≈ 98.3 µM)	256 (≈ 393 µM)	17.8	17.2	16 (≈ 24.6 µM)	15.7	2 (≈ 3.07 µM)	64 (≈ 98.3 µM)	–
OC(Cn1cncn1)(Cn1cncn1)c1ccc(F)cc1F [FLUCONAZOLE]	–	–	–	–	–	–	–	–	–	–	–	8 (≈ 26.1 µM)	–	64 (≈ 209 µM)	–	–	8 (≈ 26.1 µM)	–	1 (≈ 3.27 µM)	–	zone of inhibition at 30 µg/mL (Pichia kudriavzevii [21]): 20 mm; zone of inhibition at 30 µg/mL (Candida albicans [22]): 20 mm; zone of inhibition at 30 µg/mL (Cryptococcus neoformans [23]): 19 mm; zone of inhibition at 30 µg/mL (Candida parapsilosis [24]): 18 mm
